These results are taken from patent US20050053580A1, “Use of microbiology non-viral substances for treating acne” (priority 2001, published 2005).

The subject of series [1] is androgen receptor. The series can be described thus: Androgen receptor expression by immunoblotting in SZ95 sebocytes. It is filed as cell-based, human. As to conditions: for inhibition of the androgen receptor expression compared to native SZ95 sebocytes: 1.0 μM, after 14 h; for protein expression of the androgen receptor: 0.4 and 1.0 μM, after 24 hours.
In series [2] the test system is SZ95 sebocytes. In words: SZ95 sebocyte proliferation, crystal violet assay. The following applies: for inhibition of the testosterone-induced stimulation of the SZ95 sebocyte proliferation: 10^−7 M testosterone, stimulation period 44 hours; for increase in proliferation: after 72 h, native SZ95 sebocytes. It is filed as cell-based, human.
Where [3] appears, read: 1 μM oligonucleotide, 4 h transfection, 14 h recovery.

“5′-CTGCCCTTCAATCCCTGAGTTTGGC-3′ (DNA CTGCCCTTCAATCCCTGAGTTTGGC; listed as DNA, chemistry not given here) [mismatch-oligonucleotide, mismatch control oligonucleotide to safeguard antisense specificity, reference compound]”: the “protein expression of the androgen receptor versus non-transfected cells” value in series [1] (four hours' transfection with DOTAP, recovery phase of at least 24 hours, Western blot) is recorded as “comparable”.
Take “5′-CTGCACTTCCATCCTTGAGCTTGGC-3′ [Thioate antisense oligonucleotide]”: in series [2] (setting [3]), the “proliferation pattern in the presence of testosterone” value is “same proliferation pattern as native cells” and the “inhibition of the testosterone-induced stimulation of the SZ95 sebocyte proliferation” value is recorded as “inhibited”. Moreover, in series [1], the “inhibition of the androgen receptor expression compared to native SZ95 sebocytes” value is 39% and the “protein expression of the androgen receptor” value is “reduced protein expression”.
For the compound `C[C@]12CCC(=O)C[C@@H]1CC[C@@H]1[C@@H]2CC[C@]2(C)[C@@H](O)CC[C@@H]12` [DHT, 5α-dihydrotestosterone, reference compound], in series [2] (10^−7-10^−6 DHT), the increase in proliferation entry was “significant”.
For the compound “5′-GCCAAGCUCAAGGAUGGAAGUGCAG-3′ (antisense GCCAAGCUCAAGGAUGGAAGUGCAG; 2'-O-methylribose, further chemistry not given here) [methylribosyl antisense oligonucleotide against the androgen receptor]”, the “inhibition of the testosterone-induced stimulation of the SZ95 sebocyte proliferation” value in series [2] (setting [3]) is given as “highly significant”. Further, in series [1], the “inhibition of the androgen receptor expression compared to native SZ95 sebocytes” value was found to be 87% and the “protein expression of the androgen receptor” value is listed as “reduced protein expression”.
With `C[C@]12CC[C@H]3[C@@H](CCC4=CC(=O)CC[C@@]43C)[C@@H]1CC[C@@H]2O` [testosterone, reference compound], the increase in proliferation entry in series [2] (10^−7 and 5×10^−7 M testosterone) is recorded as “significant”.
